Experimental data from PMC12304311, “Sequence-based virtual screening using transformers” (Nature Communications, 2025).

How the values were obtained:
[1] = biological target: T1, EGFR L858R/T790M/C797S kinase (EGFR^LTC) (Homo sapiens, UniProt P00533, C797S/L858R/T790M); assay: biochemical; set-up: HTRF KINASE-TK inhibition assay, EGFR L858R/T790M/C797S, ATP about Km, dose response
Procedure: A total of 25 nL of each compound was transferred to a 384-well reaction plate (Greiner, Cat#784075) using an Echo655 acoustic dispenser. […] The kinase solution was prepared in 1× kinase reaction buffer (comprising 5 mM MgCl₂, 1 mM DTT, and 1 mM MnCl₂), and 2.5 μL of this solution was added to each well. The plate was centrifuged at 140 g for 1 min and incubated at 25 °C for 10 min. […] This ATP level was selected in accordance with the Cheng-Prusoff equation (where ATP = Km, IC50 = 2Ki) to accurately reflect the inhibitory potency of test compounds. Then, 2.5 μL of the substrate-ATP mixture was added to each well, followed by centrifugation at 140 g for 1 min. The plate was sealed and incubated at 25 °C for 50 min. Subsequently, a 2× detection reagent mixture containing XL665 and anti-phospho-tyrosine antibody in detection buffer was prepared, and 5 μL of this solution was added to each well. The plate was centrifuged again (140 g, 1 min) and incubated at 25 °C for 60 min. Fluorescence emissions at 620 nm (Cryptate) and 665 nm (XL665) were measured using a microplate reader. Each assay condition was tested in duplicate. […] This was achieved by fitting the calculated percentage inhibition and the logarithm of the compound concentrations to a variable slope (four-parameter) nonlinear regression model. The model is expressed by the equation:3 Y=Bottom+Top−Bottom/1+10^LogIC50−X×Hill slope where X denotes the log of the inhibitor concentration and Y represents the percentage inhibition. Furthermore, the percentage of enzymatic activity in the presence of inhibitors, expressed as % Control, is derived by subtracting the % Inhibition from 100%.

[2] = biological target: T1, EGFR L858R/T790M/C797S kinase (EGFR^LTC); assay: HTRF KINASE-TK in vitro kinase inhibition assay, dose response; format: biochemical

T1 sequence (P00533 669-1210 T790M/C797S/L858R limits assumed): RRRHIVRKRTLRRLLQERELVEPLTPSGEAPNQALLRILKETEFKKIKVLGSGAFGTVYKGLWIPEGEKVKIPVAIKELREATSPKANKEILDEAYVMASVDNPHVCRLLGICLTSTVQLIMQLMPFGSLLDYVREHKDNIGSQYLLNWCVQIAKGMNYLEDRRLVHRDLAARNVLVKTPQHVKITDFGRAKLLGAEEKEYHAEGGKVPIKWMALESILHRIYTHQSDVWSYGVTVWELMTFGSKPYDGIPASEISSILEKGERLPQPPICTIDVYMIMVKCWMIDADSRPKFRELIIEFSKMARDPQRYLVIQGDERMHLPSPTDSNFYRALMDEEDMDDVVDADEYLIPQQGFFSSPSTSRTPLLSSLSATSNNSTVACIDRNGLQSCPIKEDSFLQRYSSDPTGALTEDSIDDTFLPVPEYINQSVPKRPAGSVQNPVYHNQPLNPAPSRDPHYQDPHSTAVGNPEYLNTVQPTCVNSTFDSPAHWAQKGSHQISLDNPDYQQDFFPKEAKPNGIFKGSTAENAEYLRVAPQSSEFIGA

SMILES	IC50 [1] [µM]	IC50 [2] [µM]
CC(C)N(C[C@H]1O[C@@H](n2cnc3c(N)ncnc32)[C@H](O)[C@@H]1O)[C@H]1C[C@@H](CCc2nc3cc(C(C)(C)C)ccc3[nH]2)C1 [C6]	> 10	
CC1(C)CCC(CN2CCN(c3ccc(C(=O)NS(=O)(=O)c4ccc(NCC5CCOCC5)c([N+](=O)[O-])c4)c(Oc4cnc5[nH]ccc5c4)c3)CC2)=C(c2ccc(Cl)cc2)C1 [C3]	> 10	
N[C@@H]1c2cccnc2[C@H](OC(=O)N2CCC(n3c(=O)[nH]c4ncccc43)CC2)CC[C@H]1c1cccc(F)c1F [C8]	> 10	
CCc1cc(Nc2nccc(-c3c(-c4ccc(OC)c(C(=O)Nc5c(F)cccc5F)c4)nc4ccccn34)n2)c(OC)cc1N1CCC(N2CCN(S(C)(=O)=O)CC2)CC1 [C7]	3.58	< 10
CC(=O)O[C@]1(C(C)=O)CC[C@H]2[C@@H]3CCC4=CC(=O)CCC4=C3[C@@H](c3ccc(N(C)C)cc3)C[C@@]21C [C9]	> 10	
N#Cc1ccnc(Nc2cc(C3CCN(C4COC4)CC3)cc(N3CCC(F)(F)C3)n2)c1 [C11]	0.106	< 10
COc1cc2nccc(Oc3ccc(NC(=O)c4cn(C(C)C)c(=O)n(-c5ccc(F)cc5)c4=O)cc3F)c2cc1OC [C5]	2.74	< 10
CN(C)CC#Cc1ccc(OCCCc2sc(N3CCc4cccc(C(=O)Nc5nc6ccccc6s5)c4C3)nc2C(=O)O)c(F)c1 [C2]	> 10	
CC(=O)c1cnc2ccc(-c3cc(Cl)c(O)c(Cl)c3)nc2c1N[C@H]1CC[C@H](CN(C)C)CC1 [C1]		0.0055
COc1cc(N2CCC(N(C)C)CC2)ccc1Nc1ncc(Cl)c(Nc2ccccc2P(C)(C)=O)n1 [C10]		0.0012
